This assay has as its system P388. Kind of assay: Cytotoxicity against mouse P388 cells. The class given is functional. Particulars: read-out: ED50 (the source's name).

In brackets after ≈: the same amount, converted by molar mass.

On to `CC(=O)OCC(C)CCC[C@@H](C)[C@H]1CC[C@H]2[C@@H]3C[C@@H](O)[C@@]4(O)C[C@@H](O)CC[C@]4(C)[C@H]3CC[C@]12C` (some centres not stated), for which the EC50 amounted to 2.4 µg/mL (≈ 5.01 µM). The value for `CC(CO)CCC[C@@H](C)[C@H]1CC[C@H]2[C@@H]3C[C@@H](O)[C@@]4(O)C[C@@H](O)CC[C@]4(C)[C@H]3CC[C@]12C` (some centres not stated) was 1.3 µg/mL (≈ 2.98 µM).
